Data set [1] in a line: Ratio, ratio of fraction unbound in solid supported porcine brain membrane vesicles at 5 uM dosed as discrete compounds after 5 hrs by TRANSIL assay to fraction unbound in solid supported porcine brain membrane vesicles at 5 uM using four compound cocktail after 5 hrs by TRANSIL assay. It is filed as ADME, Sus scrofa. The settings on record: pig.
A short description of data set [2]: Fraction unbound in Wistar rat brain homogenate at 5 uM after 5 hrs by equilibrium dialysis method. In general terms: In equilibrium dialysis free small molecules cross a membrane that holds back macromolecules.
A short description of data set [3]: Percentage unbound in solid supported porcine brain membrane vesicles at 5 uM by TRANSIL assay. The settings on record: pig.
Data set [4] in a line: Ratio of fraction unbound in Wistar rat brain homogenate at 5 uM after 5 hrs by equilibrium dialysis method to fraction unbound in solid supported porcine brain membrane vesicles at 5 uM by TRANSIL assay.
The target of data set [5] is Albumin (Rattus norvegicus, UniProt P02770). Description: Binding affinity to Wistar rat serum albumin. It is filed as ADME.
Sequence of Albumin (P02770 whole entry): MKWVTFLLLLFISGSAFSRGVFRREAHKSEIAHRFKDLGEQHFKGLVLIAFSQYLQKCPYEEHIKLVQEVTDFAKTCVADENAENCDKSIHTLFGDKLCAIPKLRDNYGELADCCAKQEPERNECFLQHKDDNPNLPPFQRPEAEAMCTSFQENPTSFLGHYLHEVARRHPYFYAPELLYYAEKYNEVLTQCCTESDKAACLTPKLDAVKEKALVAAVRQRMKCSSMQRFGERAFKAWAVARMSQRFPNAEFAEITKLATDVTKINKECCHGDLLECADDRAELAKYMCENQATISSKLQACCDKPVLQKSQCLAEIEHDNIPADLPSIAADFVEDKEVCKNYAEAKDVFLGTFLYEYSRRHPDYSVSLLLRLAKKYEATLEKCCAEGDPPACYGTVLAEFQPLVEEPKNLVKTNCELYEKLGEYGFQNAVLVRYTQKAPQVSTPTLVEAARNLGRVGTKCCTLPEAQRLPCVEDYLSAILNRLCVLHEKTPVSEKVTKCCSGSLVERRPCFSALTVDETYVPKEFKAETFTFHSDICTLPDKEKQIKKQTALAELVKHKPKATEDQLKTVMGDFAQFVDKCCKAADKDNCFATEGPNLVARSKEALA
The nature of data set [6]: Binding affinity to Wistar rat brain lipid by TRANSIL assay. It is filed as ADME.
Data set [7] can be described thus: Binding affinity to Wistar rat brain lipid assessed as percentage unbound by TRANSIL assay. It is filed as ADME, tissue-based.
Data set [8] in a line: Percentage unbound in solid supported porcine brain membrane vesicles at 5 uM using four compound cocktail after 5 hrs by TRANSIL assay. It is filed as ADME, tissue-based, Sus scrofa. The settings on record: pig.
Data set [9] in a line: Ratio of fraction unbound in solid supported porcine brain membrane vesicles at 5 uM by TRANSIL assay to fraction unbound in Wistar rat brain homogenate at 5 uM after 5 hrs by equilibrium dialysis method. It is filed as ADME, tissue-based.
Where [10] appears, read: solid supported porcine brain membrane vesicles.

On to `CN(C)CCC=C1c2ccccc2CCc2ccccc21` [AMITRIPTYLINE], for which the Ratio in data set [1] (in vitro) was 1; in data set [4], 1.2. The free fraction (fraction unbound) at 5 h, 5 µM in [2] came out at 0.009; in [8], 0.0071. This molecule had a fraction unbound at 5 µM in data set [3] (setting [10]) of 0.0073. Moreover, the Kd in [5] came to 134 µM; in [6] it was 1.01 µM. Besides, the fraction unbound in data set [7] stood at 0.0083.

As to `CCCCN1CCCCC1C(=O)Nc1c(C)cccc1C` (stereo not drawn) [BUPIVACAINE], the Ratio is listed as 0.9 in [1] (in vitro) and 1.6 in data set [4]. For the same molecule, the fraction unbound at 5 h, 5 µM in data set [2] worked out at 0.278; in data set [8] it was 0.19. The fraction unbound at 5 µM in [3] (setting [10]) was 0.17.

With `CC(NC(C)(C)C)C(=O)c1cccc(Cl)c1` (stereo not drawn) [BUPROPION], the figures for the Ratio in [1] and in [4] were 1.2 and 1, respectively. Besides, the fraction unbound at 5 h, 5 µM in [2] is 0.17; in [8], 0.14. The same molecule gave a fraction unbound at 5 µM in [3] (setting [10]) of 0.17.

Consider `Cn1c(=O)c2c(ncn2C)n(C)c1=O` [CAFFEINE], for which, in [2], the fraction unbound at 5 h, 5 µM was 0.52. This molecule displayed a fraction unbound at 5 µM in [3] (Brain) of 0.26. The Ratio in [4] came to 2.

For `NC(=O)N1c2ccccc2C=Cc2ccccc21` [CARBAMAZEPINE], the results for the fraction unbound at 5 h, 5 µM in data set [2] and in [8] were 0.119 and 0.26, respectively. In [3] (Brain), this molecule showed a fraction unbound at 5 µM of 0.132. Further, in data set [6], binding was put at a Kd of 24.2 µM. Further, the fraction unbound in data set [7] was 0.168.

Take `CCCC(C)(COC(N)=O)COC(=O)NC(C)C` (stereo not drawn) [CARISOPRODOL]: the Ratio in data set [9] was determined as 1.5. In data set [2], this molecule displayed a fraction unbound at 5 h, 5 µM of 0.202. The molecule further came in with a fraction unbound at 5 µM in data set [3] (setting [10]) of 0.295.

Turning to `CN(C)CCCN1c2ccccc2Sc2ccc(Cl)cc21` [CHLORPROMAZINE], the fraction unbound at 5 h, 5 µM in [2] turned out to be 0.002. Besides, in data set [3] (Brain), the fraction unbound at 5 µM is 0.0022. This molecule came in with a Kd in [6] of 0.184 µM. Moreover, the fraction unbound in data set [7] came out at 0.0015.

Consider `CN1CCN(C2=Nc3cc(Cl)ccc3Nc3ccccc32)CC1` [CLOZAPINE], for which the Ratio in [1] (in vitro) turned out to be 0.8; in data set [4], 1.5. For the same molecule, the values for the fraction unbound at 5 h, 5 µM in data set [2] and in data set [8] were 0.011 and 0.0092, respectively. In addition, the fraction unbound at 5 µM in data set [3] (Brain) came to 0.0072. Also, the Kd is 78.8 µM in data set [5] and 0.775 µM in [6]. In addition, in [7], the fraction unbound was 0.0064.

Turning to `CN(C)CCC=C1c2ccccc2C=Cc2ccccc21` [CYCLOBENZAPRINE], in data set [9], the Ratio is 1.4. In data set [2], this molecule showed a fraction unbound at 5 h, 5 µM of 0.0073. For the same molecule, the fraction unbound at 5 µM in data set [3] (Brain) came out at 0.01.

For `CNCCC(Oc1ccc(C(F)(F)F)cc1)c1ccccc1` (stereo not drawn) [FLUOXETINE], the fraction unbound at 5 h, 5 µM in data set [2] turned out to be 0.004. The fraction unbound at 5 µM in data set [3] (setting [10]) turned out to be 0.003. The Ratio in data set [4] was found to be 1.3. In addition, the Kd in [5] was 36.1 µM; in data set [6], 0.323 µM. For the same molecule, the fraction unbound in [7] came out at 0.0027.

`O=C(CCCN1CCC(O)(c2ccc(Cl)cc2)CC1)c1ccc(F)cc1` [HALOPERIDOL]: the values for the Ratio in data set [9] and in [1] (in vitro) were 1.3 and 1, respectively. Moreover, the fraction unbound at 5 h, 5 µM stood at 0.011 in data set [2] and 0.014 in data set [8]. This molecule also returned a fraction unbound at 5 µM in data set [3] (Brain) of 0.014. The Kd in data set [5] was determined as 96.9 µM; in data set [6], 1.56 µM. Moreover, the free fraction (fraction unbound) in [7] is 0.0129.

For `OCCOCCN1CCN(C(c2ccccc2)c2ccc(Cl)cc2)CC1` (stereo not drawn) [HYDROXYZINE], the Ratio in [9] is listed as 2.1. The molecule also gave a fraction unbound at 5 h, 5 µM in data set [2] of 0.0102. In [3] (Brain), this molecule came in with a fraction unbound at 5 µM of 0.021.

`CC(C)Cc1ccc(C(C)C(=O)O)cc1` (stereo not drawn) [IBUPROFEN] came in with a Kd in [6] of 52.7 µM.

With `CCN(CC)CCNC(=O)c1cc(Cl)c(N)cc1OC` [METOCLOPRAMIDE], in [2], the fraction unbound at 5 h, 5 µM stood at 0.36. The same molecule showed a fraction unbound at 5 µM in data set [3] (Brain) of 0.295. The molecule also registered a Kd in [6] of 88.9 µM. Further, in data set [7], the fraction unbound amounted to 0.426.

As to `Cc1ncc2n1-c1ccc(Cl)cc1C(c1ccccc1F)=NC2` [MIDAZOLAM], the Ratio in [9] was 1.8; in data set [1] it was 1.1. Moreover, the fraction unbound at 5 h, 5 µM in [2] stood at 0.023; in data set [8], 0.037. The same molecule yielded a fraction unbound at 5 µM in [3] (Brain) of 0.041.

In the case of `CNCCC=C1c2ccccc2CCc2ccccc21` [NORTRIPTYLINE], the fraction unbound at 5 h, 5 µM in data set [2] was 0.0046. The fraction unbound at 5 µM in data set [3] (Brain) is 0.004. In addition, in [4], the Ratio was 1.2.

As for `Fc1ccc([C@@H]2CCNC[C@H]2COc2ccc3c(c2)OCO3)cc1` [PAROXETINE], the fraction unbound at 5 h, 5 µM in [2] turned out to be 0.0039. In data set [3] (Brain), the free fraction (fraction unbound) at 5 µM is 0.0026. Besides, the Ratio in [4] is 1.5.

The molecule `O=C1NC(=O)C(c2ccccc2)(c2ccccc2)N1` [PHENYTOIN] yielded a fraction unbound at 5 h, 5 µM in data set [2] of 0.081. Further, the fraction unbound at 5 µM in data set [3] (Brain) is 0.047. Further, the Ratio in data set [4] came out at 1.7.

Regarding `CC(C)NCC(O)COc1cccc2ccccc12` (stereo not drawn) [PROPRANOLOL], the results for the Ratio in [1] (in vitro) and in data set [4] were 1 and 1.5, respectively. Further, the fraction unbound at 5 h, 5 µM in data set [2] came to 0.03; in [8], 0.02. In addition, the fraction unbound at 5 µM in data set [3] (setting [10]) was found to be 0.02.

Consider `Cc1nc2n(c(=O)c1CCN1CCC(c3noc4cc(F)ccc34)CC1)CCCC2` [RISPERIDONE], for which, in [3] (Brain), the fraction unbound at 5 µM was found to be 0.057. The molecule also came in with a Kd in data set [5] of 43.8 µM. Besides, the fraction unbound in data set [7] was 0.121.

On to `CCN1CCCC1CNC(=O)c1cc(S(N)(=O)=O)ccc1OC` (stereo not drawn) [SULPIRIDE], for which the fraction unbound at 5 h, 5 µM in data set [2] amounted to 0.63. This molecule displayed a fraction unbound at 5 µM in data set [3] (Brain) of 0.24. Besides, in [4], the Ratio worked out at 2.6.

The molecule `CSc1ccc2c(c1)N(CCC1CCCCN1C)c1ccccc1S2` (stereo not drawn) [THIORIDAZINE] returned an unbound share (fraction unbound) at 5 h, 5 µM in [2] of 0.001. The molecule also gave a fraction unbound at 5 µM in [3] (Brain) of 0.0003. For the same molecule, the Ratio in data set [4] is recorded as 3.3. The Kd in [5] was determined as 6.69 µM; in data set [6], 0.369 µM. Also, in [7], the fraction unbound is 0.0031.

`O=c1n(CCCN2CCN(c3cccc(Cl)c3)CC2)nc2ccccn12` [TRAZODONE] had a free fraction (fraction unbound) at 5 h, 5 µM in data set [2] of 0.055. The molecule further showed an unbound share (fraction unbound) at 5 µM in data set [3] (setting [10]) of 0.057. Moreover, the Ratio in data set [4] is recorded as 1. Further, the Kd in data set [5] amounted to 7.95 µM; in [6], 5.47 µM. Besides, the fraction unbound in data set [7] stood at 0.0437.

As for `CN1CCN(CCCN2c3ccccc3Sc3ccc(C(F)(F)F)cc32)CC1` [TRIFLUOPERAZINE], the fraction unbound at 5 h, 5 µM in data set [2] worked out at 0.0007. Further, the fraction unbound at 5 µM in [3] (Brain) was 0.0018. For the same molecule, the Kd in data set [6] stood at 0.392 µM. In addition, the fraction unbound in data set [7] is 0.0033.

The molecule `COc1ccc(C(CN(C)C)C2(O)CCCCC2)cc1` (stereo not drawn) [VENLAFAXINE] had a fraction unbound at 5 h, 5 µM in [2] of 0.21. The same molecule gave a fraction unbound at 5 µM in [3] (Brain) of 0.123. The Kd in data set [6] stood at 38.2 µM. Besides, the fraction unbound in data set [7] came to 0.242.

As to `CC(=O)CC(c1ccccc1)c1c(O)c2ccccc2oc1=O` (stereo not drawn) [WARFARIN], the Kd in data set [6] was 81.4 µM. Further, the fraction unbound in [7] came to 0.405.

The fraction unbound is free concentration divided by total concentration. Broadly, the Kd is the constant that tells how readily two partners part at equilibrium. A high value points to a looser complex.

The values above are taken from ChEMBL document CHEMBL3526149, “Brain tissue binding of drugs: evaluation and validation of solid supported porcine brain membrane vesicles (TRANSIL) as a novel high-throughput method” (Drug Metab Dispos, 2011).
